The target of one assay is C3a receptor (Homo sapiens, UniProt Q16581). The assay is described as follows: xCELLigence, antagonism of peptide-evoked response by C3a receptor antagonist SB 290157 in HMDM. The format is cell-based. Conditions: n=3–5. On the procedure:
(§1) HMDM were seeded overnight at 30,000 cells/well in 384-well E-Plates (Roche). Approximately 24 h later, HMDM media were exchanged for serum-free IMDM and equilibrated at 37 °C and 5% CO2 for 2 h prior to ligand addition. Ligands were prepared at a final DMSO concentration of 0.5% (or less) in serum-free IMDM. […] After agonist addition, measurements were taken continuously for ~1.5 h at 37 °C. The RTCA software was used for data analysis, with statistical analysis using GraphPad Prism 5.0c (GraphPAD Software Inc., San Diego, CA).

Assay [1] has as its target T1, human monocyte-derived macrophages (HMDM) (Homo sapiens, UniProt Q16581).
T1 sequence (Q16581 1-482): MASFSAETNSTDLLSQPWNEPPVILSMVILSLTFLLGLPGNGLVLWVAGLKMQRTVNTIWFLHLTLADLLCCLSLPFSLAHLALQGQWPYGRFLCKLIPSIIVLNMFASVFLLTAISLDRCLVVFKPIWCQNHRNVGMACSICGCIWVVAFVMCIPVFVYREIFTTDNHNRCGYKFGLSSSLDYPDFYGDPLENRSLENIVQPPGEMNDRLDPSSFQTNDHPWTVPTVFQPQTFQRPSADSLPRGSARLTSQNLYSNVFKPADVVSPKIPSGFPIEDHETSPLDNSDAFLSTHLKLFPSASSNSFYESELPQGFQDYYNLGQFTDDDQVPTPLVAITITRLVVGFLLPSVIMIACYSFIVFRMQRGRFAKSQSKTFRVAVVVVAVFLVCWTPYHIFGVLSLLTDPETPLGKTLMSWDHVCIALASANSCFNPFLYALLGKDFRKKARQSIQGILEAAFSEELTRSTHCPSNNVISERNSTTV
The assay is described as follows: xCELLigence cell impedance assay, agonist activity on HMDM. The format is cell-based. Conditions: for EC50: xCELLigence impedance, dose-response, serum-free IMDM, 37 °C, n=3–5; for response in initial single dose screen: single dose of 8 μM, n=4–6, hit = P<0.001; for xCELLigence response profile: C3a and C5a at 100 nM. On the procedure:
Human monocytes were isolated from blood donations to the Australian Red Cross Blood Service (Kelvin Grove, Queensland). The isolation of mononuclear cells was as described previously by [Halai and Cooper (2012)]. Briefly, the mononuclear cell layer was separated using density gradient centrifugation with Ficoll-Paque Plus (GE Healthcare). MACS magnetic beads (Miltenyi Biotec) were incubated with the cells for 15 min at 4 °C before passing through an LS column (Miltenyi Biotec) to select for the CD14+ cells. Selected monocytes were plated at a density of 1.5×10^7 in Iscove׳s Modified Dulbecco׳s Medium (IMDM) (Invitrogen Life Technologies) containing L-glutamine supplemented with 10% Fetal Bovine Serum (FBS), 50 IU/ml penicillin and 50 μg/ml streptomycin. Human macrophage colony-stimulating factor (M-CSF) (Peprotech) was added to media to allow cells to differentiate into human monocyte-derived macrophages (HMDM). Over the 7 day differentiation process, cells were incubated at 37 °C and 5% CO2.
as §1

A further assay has as its target T2, human C3a receptor (Homo sapiens, UniProt Q16581).
T2 construct: expressed in transfected cells; host or cells: RBL-2H3 (rat basophilic leukemia) cells
T2 sequence (Q16581 1-482): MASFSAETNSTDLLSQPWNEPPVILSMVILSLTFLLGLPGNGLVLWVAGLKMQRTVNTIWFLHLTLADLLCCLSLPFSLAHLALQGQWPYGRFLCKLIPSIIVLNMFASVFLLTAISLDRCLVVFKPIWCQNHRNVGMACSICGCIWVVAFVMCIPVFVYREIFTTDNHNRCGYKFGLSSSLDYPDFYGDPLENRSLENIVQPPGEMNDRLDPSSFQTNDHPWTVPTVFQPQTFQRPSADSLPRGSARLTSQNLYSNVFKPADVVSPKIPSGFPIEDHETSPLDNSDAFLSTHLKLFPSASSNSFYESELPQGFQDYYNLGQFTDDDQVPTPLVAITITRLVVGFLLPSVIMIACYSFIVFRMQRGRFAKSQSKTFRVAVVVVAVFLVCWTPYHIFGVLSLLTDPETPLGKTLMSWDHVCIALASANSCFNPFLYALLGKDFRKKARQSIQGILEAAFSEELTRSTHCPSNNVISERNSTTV
As to the kind of experiment: RBL-2H3 degranulation assay (β-hexosaminidase), agonist, human C3a receptor. The format is cell-based. Conditions: RBL-2H3 transfected with human C3a receptor, 100 µM peptide (Fig. 3 legend: 50 μM), 15 min, β-hexosaminidase secretion, relative to FLPLAR. On the procedure: RBL-2H3 cells transfected with either human C5a1 or human C3a receptor ([Cain and Monk, 2002]) were routinely cultured in Dulbecco׳s Modified Eagle׳s Medium, 10% (v/v) fetal calf serum, and 400 mg/l G-418 at 37 °C in 5% CO2. Degranulation was measured by assaying for β-hexosaminidase activity in the cell supernatant, as described previously ([Monk et al., 1994]). In agonist assays, degranulation was calculated as a percentage of maximal activity in response to 200 nM recombinant human C3a, human C5a ([Cain and Monk, 2002]), or 10 nM agonist hexapeptide, FLPLAR ([Scully et al., 2010]). […]
RBL-2H3 cells transfected with either human C5a1 or human C3a receptor ([Cain and Monk, 2002]) were used to confirm hits detected in HMDM, using degranulation as a read-out ([Monk et al., 1994]). In cells transfected with C5a1, very weak agonist activity was detected in two groups of peptides, although even at 100 µM (the maximal dose achievable in the presence of the DMSO, which has adverse effects >1%), the activation obtained was 5–10% of the maximum activation achieved by a high dose of C5a (Fig. 3, top panel). […]
Fig. 3 Agonist activity of peptides at human C5a1 and C3a receptors expressed in rat basophilic leukemia cells (RBL-2H3). […] Degranulation was measured as the secretion of β-hexosaminidase. […]

Another assay has as its system C5a receptors. To be noted: ref Taylor and Fairlie, 2005; cited from earlier work. From the text:
C3a receptor/C5a1 promiscuity is not unusual and has been previously observed for whole C3a and a synthetic peptide agonist ([Ames et al., 1996]) and a chimeric C5a with the C3a C-terminal pentapeptide ([Bautsch et al., 1992]). In fact, early efforts to create potent and selective antagonists of C5a1 led to only partial agonists ([Taylor and Fairlie, 2005]).

Ends that are not written are not given here.

The values below come from article PMC4263610, “Derivation of ligands for the complement C3a receptor from the C-terminus of C5a” (European Journal of Pharmacology, 2014).

The IC50 is the point on the concentration scale where inhibition reaches its midpoint. Low values mean inhibition by little substance, high ones a need for much substance. `N=C(N)NCCC[C@H](NC(=O)COCC(c1ccccc1)c1ccccc1)C(=O)O` [SB 290157]: the IC50 was determined as 1.3 nM at C3a receptor (agonist peptide 20 at about its EC50, antagonist pre-incubated 1 h); 67 nM on C3a receptor (agonist peptide 31 at about its EC50, antagonist pre-incubated 1 h); 44 nM at C3a receptor (agonist peptide 47 at about its EC50, antagonist pre-incubated 1 h); 15 nM on C3a receptor (agonist peptide 49 at about its EC50, antagonist pre-incubated 1 h); 29 nM at C3a receptor (agonist peptide 54 at about its EC50, antagonist pre-incubated 1 h).

Usually EC50 stands for the concentration at which the effect is half-maximal. For the molecule Ac-NNYNLWR-OH [Peptide 20, Ac-NNYNLWR], in assay [1], the EC50 amounted to 5800 nM. In addition, the “response in initial single dose screen” value in assay [1] (xCELLigence) is “significant hits”.

Ac-RHYPLWR-OH [Peptide 31, Ac-RHYPLWR]: the “activation of C3a receptor (degranulation)” value on human C3a receptor is listed as “very strong activation”. The EC50 in assay [1] is 1100 nM. Further, the “response in initial single dose screen” value in assay [1] (xCELLigence) is given as “significant hits”.

Regarding Ac-RLYPLWR-OH [Peptide 47, Ac-RLYPLWR], in assay [1], the 50% effective concentration (EC50) worked out at 1200 nM. The “response in initial single dose screen” value in assay [1] (xCELLigence) is listed as “significant hits”.

Regarding Ac-RYPLWR-OH [Peptide 54, Ac-RYPLWR], the “activation of C3a receptor (degranulation)” value on human C3a receptor was “very strong activation”. In assay [1], this molecule came in with an EC50 of 3000 nM. The “response in initial single dose screen” value in assay [1] (xCELLigence) is listed as “significant hits”.

Turning to Ac-TIYRLWR [Peptide 49, Ac-TIYRLWR], it took 17000 nM to reach a half-maximal effect in assay [1] (EC50).

For Ac-TLLRLWR [Peptide 48], in assay [1] (xCELLigence, full dose range), the “outcome of full dose range retest” value is “a full dose response could not be obtained”. Besides, in assay [1] (xCELLigence), the “response in initial single dose screen” value is listed as “significant hits”.

On to “AcPhe[Lornithine-Pro-D-cyclohexylalanine-Trp-Arg] (sidechain bridge or staple) [PMX53, cyclic C5a1 antagonist]”, for which the receptor affinity entry in the assay with C5a receptors is “low nanomolar range”.

Regarding “C3a: complement fragment C3a, 77-residue protein, recombinant human [Peptide C3a]”, the xCELLigence response profile entry in assay [1] was “single peak profile”. Moreover, in assay [1] (xCELLigence), the “cell index (intensity of the signal)” value stood at 1.98 and the “time of signal peak after addition” value is ~ 1 min.

B1: C5a: complement fragment C5a, 74-residue protein, human (protein, UniProt P01031 678-751, looked up)
C5a anaphylatoxin: TLQKKIEEIAAKYKHSVVKKCCYDGACVNNDETCEQRAARISLGPRCIKAFTECCVVASQLRANISHKDMQLGR
modifications: C5a anaphylatoxin
notes: complement fragment C5a, 74-residue protein, human
Take B1: the xCELLigence response profile entry in assay [1] is given as “two-peak profile”. Moreover, in assay [1] (xCELLigence), the “cell index (intensity of the signal)” value turned out to be 4.53 and the “time of signal peak after addition” value is ~ 4 min.
